Experimental findings from patent US8945639B2, “Treatment of inflammatory bowel disease” (Provexis (IBD) Limited, priority 2003, dated 2015) are described below.

The labels stand for the following.
B1: fetuin: fetuin, glycoconjugate tested at 50 μg/ml (protein, UniProt P12763 19-359, looked up)
Alpha-2-HS-glycoprotein: IPLDPVAGYKEPACDDPDTEQAALAAVDYINKHLPRGYKHTLNQIDSVKVWPRRPTGEVYDIEIDTLETTCHVLDPTPLANCSVRQQTQHAVEGDCDIHVLKQDGQFSVLFTKCDSSPDSAEDVRKLCPDCPLLAPLNDSRVVHAVEVALATFNAESNGSYLQLVEISRAQFVPLPVSVSVEFAVAATDCIAKEVVDPTKCNLLAEKQYGFCKGSVIQKALGGEDVRVTCTLFQTQPVIPQPQPDGAEAEAPSAVPDAAGPTPSAAGPPVASVVVGPSVVAVPLPLHRAHYDLRHTFSGVASVESSSGEAFHVGKTPIVGQPSIPGGPVRLCPGRIRYFKI
B2: asialofetuin: asialofetuin, glycoconjugate tested at 50 μg/ml (protein, UniProt P12763 19-359, looked up)
Alpha-2-HS-glycoprotein: B1 Alpha-2-HS-glycoprotein
modifications: desialylated
notes: asialofetuin, glycoconjugate tested at 50 μg/ml

In this test the test system is agglutinating mucosally-associated E. coli (haemagglutination of human red blood cells). As to the kind of experiment: Haemagglutination assays with different oligosaccharides/fibres (Example 1). The class given is cell-based. Conditions: agglutinating E. coli from IBD subjects, 'in all cases', mannose, fucose, galactose 0.4M, fetuin, asialofetuin 50 μg/ml. Here is the method:
Blood was taken from a healthy human volunteer and placed into a heparinised container. The blood was washed three times in PBS by centrifugation at 1000 rpm for 5 minutes and by resuspending the pellet in fresh PBS. After the third wash, the pellet was resuspended in PBS so as to give a 1% red blood cell solution. Bacteria identified as E. coli, and 5 strains of CD-ileal associated E. coli were grown so as to obtain maximum fimbrial expression (see above). Bacteria were suspended in saline to give an OD equal to MacFarland standard 5. Doubling dilutions of bacterial suspension were performed in 96 well U-bottomed haemagglutination plates (Dynex technologies) to a final volume of 100 μl per well. 50 μl of 1% rbcs was added to each well. The plate was tapped gently to mix the contents of the wells and was left at room temperature for approximately 2 hrs.
Further characterisation of bacterial haemagglutination was carried out using a panel of oligosaccharides/fibers. The structures tested were: mannose (0.4M), fucose (0.4M), galactose (0.4M), fetuin (50 μg/ml), asialofetuin (50 μg/ml), bovine submaxillary mucin (BSM), hydrolysed BSM, ovine submaxilliary mucin (OSM), lactose, lactulose, siayl Tn, GalGalNAc, N-Glycolyneuraminic acid, N-acetylneuraminic acid, 3′-n-acetylneuraminyl-lactose, 6′-n-acetylneuraminyl-lactose, melibiose, plantain, stachyose, milk derived galacto-oligosaccharide, raffinose, pectin, polygalacturonic acid, and paralacto-n-hexaose.
Soluble fiber (prepared according to 1.1.12.2) and other carbohydrates were tested for their ability to modulate agglutination, attachment and invasion of cells from subjects with IBD.
As for `OC[C@H]1O[C@@H](O[C@@H]2[C@@H](CO)OC(O)(CO)[C@H]2O)[C@H](O)[C@@H](O)[C@H]1O` (mixture of isomers) [lactulose], the inhibition of agglutination result is “non-inhibitory”. The result for `CC(=O)N[C@H]1[C@H]([C@H](O)[C@H](O)CO)O[C@@](O[C@H]2[C@@H](O)[C@@H](CO)O[C@@H](O[C@H]3[C@H](O)[C@@H](O)C(O)O[C@@H]3CO)[C@@H]2O)(C(=O)O)C[C@@H]1O` (stereo partly shown) [3′-n-acetylneuraminyl-lactose] reads “non-inhibitory”. Then `CC(=O)NC1C(O)CC(OCC2OC(OC3C(CO)OC(O)C(O)C3O)C(O)C(O)C2O)(C(=O)O)OC1C(O)C(O)CO` (stereo not shown) [6′-n-acetylneuraminyl-lactose], with “non-inhibitory”. Then `CC(=O)N[C@H]1C(O)O[C@H](CO)[C@H](O)[C@@H]1O[C@@H]1O[C@H](CO)[C@H](O)[C@H](O)[C@H]1O` (stereo partly shown) [Galβ1-3GalNAc], with “non-inhibitory”; and `CC(=O)N[C@H]1[C@H]([C@H](O)[C@H](O)CO)OC(O)(C(=O)O)C[C@@H]1O` (stereo partly shown) [N-acetylneuraminic acid], with “non-inhibitory”; and `O=C(CO)N[C@H]1[C@H]([C@H](O)[C@H](O)CO)OC(O)(C(=O)O)C[C@@H]1O` (stereo partly shown) [N-glycolyneuraminic acid], with “non-inhibitory”.

In the case of `C[C@H](O)[C@@H](O)[C@@H](O)[C@H](O)C=O` [fucose], the inhibition of agglutination entry is “non-inhibitory”. Consider `O=C[C@H](O)[C@@H](O)[C@@H](O)[C@H](O)CO` [galactose], for which the inhibition of agglutination entry is reported as “non-inhibitory”. Turning to `OC[C@H]1O[C@@H](O[C@H]2[C@H](O)[C@@H](O)C(O)O[C@@H]2CO)[C@H](O)[C@@H](O)[C@H]1O` (stereo partly shown) [lactose], the inhibition of agglutination entry is listed as “non-inhibitory”. In the case of `OC[C@H]1O[C@H](OCC2O[C@@H](O)[C@H](O)[C@@H](O)[C@@H]2O)[C@H](O)[C@@H](O)[C@H]1O` (stereo partly shown) [melibiose], the inhibition of agglutination entry is on record as “non-inhibitory”.

Regarding `OC[C@H]1O[C@H](OC[C@H]2O[C@H](O[C@]3(CO)O[C@H](CO)[C@@H](O)[C@@H]3O)[C@H](O)[C@@H](O)[C@@H]2O)[C@H](O)[C@@H](O)[C@H]1O` [raffinose], the inhibition of agglutination result is “non-inhibitory”. On to `OC[C@H]1O[C@H](OC[C@H]2O[C@H](OC[C@H]3O[C@H](O[C@]4(CO)O[C@H](CO)[C@@H](O)[C@@H]4O)[C@H](O)[C@@H](O)[C@@H]3O)[C@H](O)[C@@H](O)[C@H]2O)[C@H](O)[C@@H](O)[C@H]1O` [stachyose], for which the inhibition of agglutination entry was “non-inhibitory”.

With bovine submaxillary mucin, the inhibition of agglutination entry is recorded as “inhibited”. Regarding paralacto-n-hexaose, the inhibition of agglutination entry is on record as “non-inhibitory”. For the molecule pectin, the inhibition of agglutination result is listed as “non-inhibitory”. The result for polygalacturonic acid reads “non-inhibitory”; that for siaylosyl-Tn, “non-inhibitory”; that for B1, “non-inhibitory”. Turning to B2, the inhibition of agglutination result is recorded as “non-inhibitory”.
